# Test results from patent US11213030B2, “4-(3,4-dihydronaphth-1-yl or 2H-chromen-4-yl)-5-hydroxy-2H-pyradizin-3-ones as herbicides” (FMC Corporation, priority 2017, dated 2022).
# What was measured:
# Type in all cases: in vivo
# [1] = system: barnyardgrass (Echinochloa crus-galli); assay: Test A postemergence, barnyardgrass; details: 0 to 100 scale
# From the text: (§1) Seeds of plant species selected from barnyardgrass (Echinochloa crus-galli), kochia (Kochia scoparia), ragweed (common ragweed, Ambrosia elatior), ryegrass, It. (Italian ryegrass, Lolium multiflorum), foxtail, green (green foxtail, Setaria viridis), and pigweed (Amaranthus retroflexus) were planted into a blend of loam soil and sand and treated preemergence with a directed soil spray using test chemicals formulated in a non-phytotoxic solvent mixture which included a surfactant. At the same time, plants selected from these weed species and also wheat (Triticum aestivum), corn (Zea mays), blackgrass (Alopecurus myosuroides), and galium (catchweed bedstraw, Galium aparine) were planted in pots containing the same blend of loam soil and sand and treated with postemergence applications of test chemicals formulated in the same manner. Plants ranged in height from 2 to 10 cm and were in the one- to two-leaf stage for the postemergence treatment. Treated plants and untreated controls were maintained in a greenhouse for approximately 10 d, after which time all treated plants were compared to untreated controls and visually evaluated for injury. Plant response ratings, summarized in Table A, are based on a 0 to 100 scale where 0 is no effect and 100 is complete control. A dash (-) response means no test result.
# [2] = system: ryegrass, It. (Italian ryegrass, Lolium multiflorum); assay: Test A postemergence, Italian ryegrass; details: 0 to 100 scale
# From the text: as §1
# [3] = system: barnyardgrass (Echinochloa crus-galli); assay: Test A preemergence, barnyardgrass; details: 0 to 100 scale
# From the text: as §1
# [4] = system: foxtail, green (green foxtail, Setaria viridis); assay: Test A postemergence, green foxtail; details: 0 to 100 scale
# From the text: as §1
# [5] = system: ragweed (common ragweed, Ambrosia elatior); assay: Test A postemergence, ragweed; details: 0 to 100 scale
# From the text: as §1
# [6] = system: ryegrass, It. (Italian ryegrass, Lolium multiflorum); assay: Test A preemergence, Italian ryegrass; details: 0 to 100 scale
# From the text: as §1
# kochia (Kochia scoparia) [7] = assay: Test A postemergence, kochia; details: 0 to 100 scale
# From the text: as §1
# [8] = system: pigweed (Amaranthus retroflexus); assay: Test A preemergence, pigweed; details: 0 to 100 scale
# From the text: as §1
# [9] = system: galium (catchweed bedstraw, Galium aparine); assay: Test A postemergence, galium; details: 0 to 100 scale
# From the text: as §1
# kochia (Kochia scoparia) [10] = assay: Test A preemergence, kochia; details: 0 to 100 scale
# From the text: as §1
# rice (Oryza sativa) = assay: Test B flooded paddy test, rice; details: Flood, 250 g ai/ha applied to paddy water, 2-leaf stage, 13 to 15 d; scale of 0 to 100 where 0 is no effect and 100 is complete control
# Protocol: (§2) Plant species in the flooded paddy test selected from rice (Oryza sativa), sedge, umbrella (small-flower umbrella sedge, Cyperus difformis), ducksalad (Heteranthera limosa), and barnyardgrass (Echinochloa crus-galli) were grown to the 2-leaf stage for testing. At the time of treatment, test pots were flooded to 3 cm above the soil surface, treated by application of test compounds directly to the paddy water, and then maintained at that water depth for the duration of the test. Treated plants and controls were maintained in a greenhouse for 13 to 15 d, after which time all species were compared to controls and visually evaluated. Plant response ratings, summarized in Table B, are based on a scale of 0 to 100 where 0 is no effect and 100 is complete control. A dash (-) response means no test result.
# [11] = system: blackgrass (Alopecurus myosuroides); assay: Test A postemergence, blackgrass; details: 0 to 100 scale
# From the text: as §1
# corn (Zea mays) = assay: Test A postemergence, corn; details: 0 to 100 scale
# From the text: as §1
# [12] = system: sedge, umbrella (small-flower umbrella sedge, Cyperus difformis); assay: Test B flooded paddy test, umbrella sedge; details: Flood, 250 g ai/ha applied to paddy water, 2-leaf stage, 13 to 15 d; scale of 0 to 100 where 0 is no effect and 100 is complete control
# Protocol: as §2
# [13] = system: foxtail, green (green foxtail, Setaria viridis); assay: Test A preemergence, green foxtail; details: 0 to 100 scale
# From the text: as §1
# [14] = system: wheat (Triticum aestivum); assay: Test A postemergence, wheat; details: 0 to 100 scale
# From the text: as §1
# [15] = system: ducksalad (Heteranthera limosa); assay: Test B flooded paddy test, ducksalad; details: Flood, 250 g ai/ha applied to paddy water, 2-leaf stage, 13 to 15 d; scale of 0 to 100 where 0 is no effect and 100 is complete control
# Protocol: as §2
# [16] = system: pigweed (Amaranthus retroflexus); assay: Test A postemergence, pigweed; details: 0 to 100 scale
# From the text: as §1
# [17] = system: barnyardgrass (Echinochloa crus-galli); assay: Test B flooded paddy test, barnyardgrass; details: Flood, 250 g ai/ha applied to paddy water, 2-leaf stage, 13 to 15 d; scale of 0 to 100 where 0 is no effect and 100 is complete control
# Protocol: as §2
# [18] = system: ragweed (common ragweed, Ambrosia elatior); assay: Test A preemergence, ragweed; details: 0 to 100 scale
# From the text: as §1
structure (smiles),measurement,setting,value
CC(=O)Oc1c(C)nn(C)c(=O)c1C1=C(C)CCc2ccccc21 [Compound 5],"Plant response rating, Barnyardgrass",[1]; 31 g ai/ha,20
same,"Plant response rating, Barnyardgrass",[1]; 125 g ai/ha,30
same,"Plant response rating, Ryegrass, It.",[2]; 31 g ai/ha,70
same,"Plant response rating, Ryegrass, It.",[2]; 125 g ai/ha,80
same,"Plant response rating, Barnyardgrass",[3]; 31 g ai/ha,20
same,"Plant response rating, Barnyardgrass",[3]; 125 g ai/ha,0
same,"Plant response rating, Foxtail, Green",[4]; 31 g ai/ha,20
same,"Plant response rating, Foxtail, Green",[4]; 125 g ai/ha,40
same,"Plant response rating, Ragweed",[5]; 31 g ai/ha,30
same,"Plant response rating, Ragweed",[5]; 125 g ai/ha,80
same,"Plant response rating, Ryegrass, It.",[6]; 31 g ai/ha,40
same,"Plant response rating, Ryegrass, It.",[6]; 125 g ai/ha,70
same,"Plant response rating, Kochia",kochia (Kochia scoparia) [7]; 31 g ai/ha,70
same,"Plant response rating, Kochia",kochia (Kochia scoparia) [7]; 125 g ai/ha,80
same,"Plant response rating, Pigweed",[8]; 31 g ai/ha,20
same,"Plant response rating, Pigweed",[8]; 125 g ai/ha,100
same,"Plant response rating, Galium",[9]; 31 g ai/ha,90
same,"Plant response rating, Galium",[9]; 125 g ai/ha,90
same,"Plant response rating, Kochia",kochia (Kochia scoparia) [10]; 31 g ai/ha,0
same,"Plant response rating, Kochia",kochia (Kochia scoparia) [10]; 125 g ai/ha,10
same,"Plant response rating, Rice",rice (Oryza sativa),0
same,"Plant response rating, Blackgrass",[11]; 31 g ai/ha,0
same,"Plant response rating, Blackgrass",[11]; 125 g ai/ha,30
same,"Plant response rating, Corn",corn (Zea mays); 31 g ai/ha,20
same,"Plant response rating, Corn",corn (Zea mays); 125 g ai/ha,20
same,"Plant response rating, Sedge, Umbrella",[12],0
same,"Plant response rating, Foxtail, Green",[13]; 31 g ai/ha,0
same,"Plant response rating, Foxtail, Green",[13]; 125 g ai/ha,0
same,"Plant response rating, Wheat",[14]; 31 g ai/ha,0
same,"Plant response rating, Wheat",[14]; 125 g ai/ha,0
same,"Plant response rating, Ducksalad",[15],0
same,"Plant response rating, Pigweed",[16]; 31 g ai/ha,70
same,"Plant response rating, Pigweed",[16]; 125 g ai/ha,100
same,"Plant response rating, Barnyardgrass",[17],0
same,"Plant response rating, Ragweed",[18]; 31 g ai/ha,20
same,"Plant response rating, Ragweed",[18]; 125 g ai/ha,80
CC1=C(c2c(O)c(C)nn(C)c2=O)c2cc(C)ccc2CC1 [Compound 4],"Plant response rating, Barnyardgrass",[1]; 31 g ai/ha,10
same,"Plant response rating, Barnyardgrass",[1]; 125 g ai/ha,10
same,"Plant response rating, Ryegrass, It.",[2]; 31 g ai/ha,0
same,"Plant response rating, Ryegrass, It.",[2]; 125 g ai/ha,20
same,"Plant response rating, Barnyardgrass",[3]; 31 g ai/ha,0
same,"Plant response rating, Barnyardgrass",[3]; 125 g ai/ha,0
same,"Plant response rating, Foxtail, Green",[4]; 31 g ai/ha,10
same,"Plant response rating, Foxtail, Green",[4]; 125 g ai/ha,20
same,"Plant response rating, Ragweed",[5]; 31 g ai/ha,0
same,"Plant response rating, Ragweed",[5]; 125 g ai/ha,20
same,"Plant response rating, Ryegrass, It.",[6]; 31 g ai/ha,0
same,"Plant response rating, Ryegrass, It.",[6]; 125 g ai/ha,0
same,"Plant response rating, Kochia",kochia (Kochia scoparia) [7]; 31 g ai/ha,0
same,"Plant response rating, Kochia",kochia (Kochia scoparia) [7]; 125 g ai/ha,20
same,"Plant response rating, Pigweed",[8]; 31 g ai/ha,0
same,"Plant response rating, Pigweed",[8]; 125 g ai/ha,0
same,"Plant response rating, Galium",[9]; 31 g ai/ha,40
same,"Plant response rating, Galium",[9]; 125 g ai/ha,70
same,"Plant response rating, Kochia",kochia (Kochia scoparia) [10]; 31 g ai/ha,0
same,"Plant response rating, Kochia",kochia (Kochia scoparia) [10]; 125 g ai/ha,0
same,"Plant response rating, Rice",rice (Oryza sativa),0
same,"Plant response rating, Blackgrass",[11]; 31 g ai/ha,0
same,"Plant response rating, Blackgrass",[11]; 125 g ai/ha,0
same,"Plant response rating, Corn",corn (Zea mays); 31 g ai/ha,0
same,"Plant response rating, Corn",corn (Zea mays); 125 g ai/ha,0
same,"Plant response rating, Sedge, Umbrella",[12],0
same,"Plant response rating, Foxtail, Green",[13]; 31 g ai/ha,0
same,"Plant response rating, Foxtail, Green",[13]; 125 g ai/ha,0
same,"Plant response rating, Wheat",[14]; 31 g ai/ha,0
same,"Plant response rating, Wheat",[14]; 125 g ai/ha,0
same,"Plant response rating, Ducksalad",[15],0
same,"Plant response rating, Pigweed",[16]; 31 g ai/ha,50
same,"Plant response rating, Pigweed",[16]; 125 g ai/ha,70
same,"Plant response rating, Barnyardgrass",[17],0
same,"Plant response rating, Ragweed",[18]; 31 g ai/ha,0
same,"Plant response rating, Ragweed",[18]; 125 g ai/ha,0
"COc1c(C)nn(C)c(=O)c1C1=C(C)CCc2ccccc21 [Compound 1, 4-(3,4-dihydro-2-methyl-1-naphthalenyl)-5-methoxy-2,6-dimethyl-3(2H)-pyridazinone]","Plant response rating, Barnyardgrass","[1]; 1000 g ai/ha, 0 no effect, 100 complete control",60
same,"Plant response rating, Ryegrass, Italian",[2]; 1000 g ai/ha,90
same,"Plant response rating, Barnyardgrass",[3]; 1000 g ai/ha,80
same,"Plant response rating, Foxtail, Green",[4]; 1000 g ai/ha,60
same,"Plant response rating, Ragweed",[5]; 1000 g ai/ha,90
same,"Plant response rating, Ryegrass, It.",[6]; 1000 g ai/ha,100
same,"Plant response rating, Kochia",kochia (Kochia scoparia) [7]; 1000 g ai/ha,20
same,"Plant response rating, Pigweed",[8]; 1000 g ai/ha,60
same,"Plant response rating, Galium",[9]; 1000 g ai/ha,100
same,"Plant response rating, Kochia",kochia (Kochia scoparia) [10]; 1000 g ai/ha,70
same,"Plant response rating, Blackgrass",[11]; 1000 g ai/ha,70
same,"Plant response rating, Corn",corn (Zea mays); 1000 g ai/ha,10
same,"Plant response rating, Foxtail, Green",[13]; 1000 g ai/ha,70
same,"Plant response rating, Wheat",[14]; 1000 g ai/ha,0
same,"Plant response rating, Pigweed",[16]; 1000 g ai/ha,80
same,"Plant response rating, Ragweed",[18]; 1000 g ai/ha,100
